Experimental data taken from patent US20060003016A1, “Therapeutic method for endolymphatic hydrops associated diseases” (priority 2004, published 2006).
Like-named read-outs stand apart in the source and are kept apart here.

Tested on: patients with Meniere's disease and endolymphatic hydrops associated diseases
Details: for hearing level / hearing level, average (500-4000 Hz): case 4, right ear; for hearing level after treatment / hearing level after treatment, average (500-4000 Hz) / hearing improved as compared with before the treatment (four-frequency PTA): water intake
Excerpt: In the present case who could be followed up for more than 24 months after treatment with water intake, the therapeutic effect was judged by using the criteria of AAO-HNS (1995)^14), 15). Proviso that in an examination on changes of the hearing, although the criteria in the four-frequency pure-tone averages (PTA) of AAO-HNS (1995)^14) adopted mean values of the hearing levels consisting of 500 Hz, 1000 Hz, 2000 Hz and 3000 Hz, in our case, the value of 4000 Hz was used in stead of that of 3000 Hz.
In each figure, a horizontal axis indicates frequency (Hz) and a vertical axis indicates hearing level. […] A graph in the upper position indicates better hearing level.

## O [water intake, water]
1000 Hz, Jun. 2003, water intake 1.5 lit./day from Jun. 20, 2003
  hearing level: 50 dB
1000 Hz, Nov. 2003, water intake 1.5 lit./day
  hearing level: 30 dB
1000 Hz, Oct. 2003, water intake 1.5 lit./day
  hearing level: 25 dB
1000 Hz, Sep. 2003, water intake 1.5 lit./day
  hearing level: 45 dB
2000 Hz, Aug. 2003, water intake 1.5 lit./day
  hearing level: 20 dB
2000 Hz, Dec. 2003, water intake 1.5 lit./day
  hearing level: 20 dB
2000 Hz, Jan. 2004, water intake 1.5 lit./day
  hearing level: 20 dB
2000 Hz, Jul. 2003, water intake 1.5 lit./day
  hearing level: 45 dB
2000 Hz, Jun. 2003, water intake 1.5 lit./day from Jun. 20, 2003
  hearing level: 25 dB
2000 Hz, Nov. 2003, water intake 1.5 lit./day
  hearing level: 20 dB
2000 Hz, Oct. 2003, water intake 1.5 lit./day
  hearing level: 20 dB
2000 Hz, Sep. 2003, water intake 1.5 lit./day
  hearing level: 40 dB
4000 Hz, Aug. 2003, water intake 1.5 lit./day
  hearing level: 30 dB
4000 Hz, Dec. 2003, water intake 1.5 lit./day
  hearing level: 30 dB
4000 Hz, Jan. 2004, water intake 1.5 lit./day
  hearing level: 25 dB
4000 Hz, Jul. 2003, water intake 1.5 lit./day
  hearing level: 60 dB
4000 Hz, Jun. 2003, water intake 1.5 lit./day from Jun. 20, 2003
  hearing level: 25 dB
4000 Hz, Nov. 2003, water intake 1.5 lit./day
  hearing level: 35 dB
4000 Hz, Oct. 2003, water intake 1.5 lit./day
  hearing level: 30 dB
4000 Hz, Sep. 2003, water intake 1.5 lit./day
  hearing level: 40 dB
8000 Hz, Aug. 2003, water intake 1.5 lit./day
  hearing level: 75 dB
8000 Hz, Dec. 2003, water intake 1.5 lit./day
  hearing level: 60 dB
8000 Hz, Jan. 2004, water intake 1.5 lit./day
  hearing level: 65 dB
8000 Hz, Jul. 2003, water intake 1.5 lit./day
  hearing level: 85 dB
8000 Hz, Jun. 2003, water intake 1.5 lit./day from Jun. 20, 2003
  hearing level: 75 dB
8000 Hz, Nov. 2003, water intake 1.5 lit./day
  hearing level: 65 dB
8000 Hz, Oct. 2003, water intake 1.5 lit./day
  hearing level: 80 dB
8000 Hz, Sep. 2003, water intake 1.5 lit./day
  hearing level: 80 dB
Aug. 2003, water intake 1.5 lit./day
  hearing level, average (500-4000 Hz): 26.25 dB
Dec. 2003, water intake 1.5 lit./day
  hearing level, average (500-4000 Hz): 22.5 dB
Jan. 2004, water intake 1.5 lit./day
  hearing level, average (500-4000 Hz): 22.5 dB
Jul. 2003, water intake 1.5 lit./day
  hearing level, average (500-4000 Hz): 50.0 dB
Jun. 2003, water intake 1.5 lit./day from Jun. 20, 2003
  hearing level, average (500-4000 Hz): 35.0 dB
Nov. 2003, water intake 1.5 lit./day
  hearing level, average (500-4000 Hz): 23.75 dB
Oct. 2003, water intake 1.5 lit./day
  hearing level, average (500-4000 Hz): 25.0 dB
Sep. 2003, water intake 1.5 lit./day
  hearing level, average (500-4000 Hz): 41.25 dB
Case 6, right ear, 125 Hz, Apr. 11, 2002, poorest level 18-24 months after treatment
  hearing level after treatment: 65 dB
Case 6, right ear, 250 Hz, Apr. 11, 2002, poorest level 18-24 months after treatment, before 85 dB
  hearing level after treatment: 80 dB
Case 6, right ear, 500 Hz, Apr. 11, 2002, poorest level 18-24 months after treatment, before 85 dB
  hearing level after treatment: 80 dB
Case 6, right ear, 1000 Hz, Apr. 11, 2002, poorest level 18-24 months after treatment, before 85 dB
  hearing level after treatment: 85 dB
Case 6, right ear, 2000 Hz, Apr. 11, 2002, poorest level 18-24 months after treatment, before 75 dB
  hearing level after treatment: 75 dB
Case 6, right ear, 4000 Hz, Apr. 11, 2002, poorest level 18-24 months after treatment, before 90 dB
  hearing level after treatment: 90 dB
Case 6, right ear, 8000 Hz, Apr. 11, 2002, poorest level 18-24 months after treatment, before 95 dB
  hearing level after treatment: 90 dB
Case 6, right ear, Apr. 11, 2002, poorest level 18-24 months after treatment, before 83.75 dB
  hearing level after treatment, average (500-4000 Hz): 82.5 dB
Case 6, right ear
  hearing improved as compared with before the treatment (four-frequency PTA): 1.25 dB
Case 6, water intake
  category of change of hearing, AAO-HNS (1995) criteria: unchanged
Case 7, left ear, 125 Hz, Oct. 10, 2003, poorest level 18-24 months after treatment, before 35 dB
  hearing level after treatment: 5 dB
Case 7, left ear, 250 Hz, Oct. 10, 2003, poorest level 18-24 months after treatment, before 40 dB
  hearing level after treatment: 5 dB
Case 7, left ear, 500 Hz, Oct. 10, 2003, poorest level 18-24 months after treatment, before 30 dB
  hearing level after treatment: 5 dB
Case 7, left ear, 1000 Hz, Oct. 10, 2003, poorest level 18-24 months after treatment, before 20 dB
  hearing level after treatment: 5 dB
Case 7, left ear, 2000 Hz, Oct. 10, 2003, poorest level 18-24 months after treatment, before 10 dB
  hearing level after treatment: 5 dB
Case 7, left ear, 4000 Hz, Oct. 10, 2003, poorest level 18-24 months after treatment, before 30 dB
  hearing level after treatment: 20 dB
Case 7, left ear, 8000 Hz, Oct. 10, 2003, poorest level 18-24 months after treatment, before 40 dB
  hearing level after treatment: 45 dB
Case 7, left ear, Oct. 10, 2003, poorest level 18-24 months after treatment, before 22.5 dB
  hearing level after treatment, average (500-4000 Hz): 8.75 dB
Case 7, left ear
  hearing improved as compared with before the treatment (four-frequency PTA): 13.75 dB
Case 7, water intake
  category of change of hearing, AAO-HNS (1995) criteria: improved
Case 8, right ear, 125 Hz, Sep. 19, 2003, poorest level 18-24 months after treatment, before 60 dB
  hearing level after treatment: 40 dB
Case 8, right ear, 250 Hz, Sep. 19, 2003, poorest level 18-24 months after treatment, before 70 dB
  hearing level after treatment: 40 dB
Case 8, right ear, 500 Hz, Sep. 19, 2003, poorest level 18-24 months after treatment, before 60 dB
  hearing level after treatment: 35 dB
Case 8, right ear, 1000 Hz, Sep. 19, 2003, poorest level 18-24 months after treatment, before 60 dB
  hearing level after treatment: 40 dB
Case 8, right ear, 2000 Hz, Sep. 19, 2003, poorest level 18-24 months after treatment, before 50 dB
  hearing level after treatment: 40 dB
Case 8, right ear, 4000 Hz, Sep. 19, 2003, poorest level 18-24 months after treatment, before 65 dB
  hearing level after treatment: 60 dB
Case 8, right ear, 8000 Hz, Sep. 19, 2003, poorest level 18-24 months after treatment, before 85 dB
  hearing level after treatment: 80 dB
Case 8, right ear, Sep. 19, 2003, poorest level 18-24 months after treatment, before 58.75 dB
  hearing level after treatment, average (500-4000 Hz): 43.75 dB
Case 8, right ear
  hearing improved as compared with before the treatment (four-frequency PTA): 15.0 dB
Case 8, water intake
  category of change of hearing, AAO-HNS (1995) criteria: improved
